Holding throughout (assay): microbe, parasite or virus in culture
Common to all, as to assay type: cell-based, human immunodeficiency virus type 1 (HIV-1)

In assay [1] the test system is wild type HIV-1. The settings on record: Human immunodeficiency virus 1, Hela-JC53, read-out: EC50 WT (nM).
Assay [2] has as its system HIV-1 L1001-K103N. The settings on record: Human immunodeficiency virus 1, read-out: EC50 L1001-K103N (nM), L1001-K103N mutant.
The test system of assay [3] is HIV-1 Y181C. The following applies: Human immunodeficiency virus 1, read-out: EC50 Y181C (nM), Y181C mutant.
Assay [4] concerns HIV-1 Y188L. The following applies: Human immunodeficiency virus 1, read-out: EC50 Y188L (nM).

Consider `Cc1cc(C)c(Oc2nc(Nc3ccc(C#N)c(C(F)(F)F)c3)nc3[nH]cnc23)c(C)c1` [Cpd 40], for which the EC50 – broadly, the midpoint of the concentration-response curve – in assay [1] was 10 to 100 nM; in assay [2], 10 to 100 nM; in assay [3], 10 to 100 nM; in assay [4] it was over 100 nM.

Take `Cc1cc(C#N)cc(C)c1Oc1nc(Nc2ccc(C#N)cc2)nc2ccn(Cc3ccccc3)c12` [Cpd 41]: the EC50 in assay [1] is under 10 nM; in assay [2], 10 to 100 nM; in assay [3], under 10 nM; in assay [4], 10 to 100 nM.

Consider `Cc1cc(C#N)cc(C)c1Oc1nc(Nc2ccc(C#N)cc2)nc2cc[nH]c12` [Cpd 42], for which the EC50 in assay [1], in assay [2], in assay [3] and in assay [4] was under 10 nM in each case.

With `CCCc1nn(C)c2c(Oc3c(C)cc(C)cc3C)nc(Nc3ccc(C#N)cc3)nc12` [Cpd 43], the EC50 in assay [1] was 10 to 100 nM; in assay [2], 10 to 100 nM; in assay [3], 10 to 100 nM; in assay [4], over 100 nM.

Turning to `Cc1cc(C)c(Oc2nc(Nc3ccc(C4CC4)cc3)nc3[nH]cnc23)c(C)c1` [Cpd 44], the EC50 in assay [1] is 10 to 100 nM; in assay [2], over 100 nM; in assay [3], over 100 nM; in assay [4], over 100 nM.

With `Cc1cc(C)c(Oc2nc(Nc3ccc(C#N)cc3)nc3c2ncn3C)c(C)c1` [Cpd 45], the EC50 is under 10 nM in assay [1], 10 to 100 nM in assay [2], under 10 nM in assay [3] and under 10 nM in assay [4].

As for `CCN(c1ccc(C#N)cc1)c1nc(Oc2c(C)cc(C#N)cc2C)c2c(ccn2CC)n1` [Cpd 46], the EC50 in assay [1], in assay [2], in assay [3] and in assay [4] was over 100 nM in each case.

On to `Cc1cc(C2CC2)cc(C)c1Oc1nc(Nc2ccc(C#N)cc2)nc2ccn(Cc3ccccc3)c12` [Cpd 47], for which the EC50 in assay [1] is 10 to 100 nM; in assay [2], over 100 nM; in assay [3] it was 10 to 100 nM; in assay [4] it was over 100 nM.

As for `Cc1cc(C)c(Sc2nc(Nc3ccc(C#N)cc3)nc3ccn(Cc4ccccc4)c23)c(C)c1` [Cpd 48], the EC50 in assay [1] was 10 to 100 nM; in assay [2], over 100 nM; in assay [3], 10 to 100 nM; in assay [4] it was over 100 nM.

As to `Cc1cc(C#N)cc(C)c1Oc1nc(Nc2ccc(C#N)cc2)nc2c(Cl)c[nH]c12` [Cpd 49], the EC50 in assay [1], in assay [2], in assay [3] and in assay [4] was under 10 nM each time.

As for `COc1cc(C)cc(OC)c1Oc1nc(Nc2ccc(C#N)cc2)nc2[nH]cnc12` [Cpd 50], the EC50 was under 10 nM in assay [1], over 100 nM in assay [2], under 10 nM in assay [3] and 10 to 100 nM in assay [4].

With `Cc1cc(C)c(Sc2nc(Nc3ccc(C#N)cc3)nc3cc[nH]c23)c(C)c1` [Cpd 51], the EC50 was under 10 nM in assay [1], 10 to 100 nM in assay [2], under 10 nM in assay [3] and under 10 nM in assay [4].

With `Cc1cc(C2CC2)cc(C)c1Oc1nc(Nc2ccc(C#N)cc2)nc2cc[nH]c12` [Cpd 52], the EC50 in assay [1], in assay [2], in assay [3] and in assay [4] was under 10 nM throughout.

On to `Cc1cc(C)c(Sc2nc(Nc3ccc(C#N)cc3)nc3c(Cl)c[nH]c23)c(C)c1` [Cpd 53], for which the EC50 in assay [1] is under 10 nM; in assay [2], over 100 nM; in assay [3] it was 10 to 100 nM; in assay [4] it was 10 to 100 nM.

On to `Cc1cc(C)c(Sc2nc(Nc3ccc(C#N)cc3)nc3c(Cl)cn(Cc4ccccc4)c23)c(C)c1` [Cpd 54], for which the EC50 in assay [1] is under 10 nM; in assay [2] it was over 100 nM; in assay [3] it was 10 to 100 nM; in assay [4], 10 to 100 nM.

As for `Cc1cc(C)c(Sc2nc(Nc3ccc(C#N)cc3)nc3c(Br)c[nH]c23)c(C)c1` [Cpd 55], the EC50 is under 10 nM in assay [1], over 100 nM in assay [2], 10 to 100 nM in assay [3] and 10 to 100 nM in assay [4].

Consider `Cc1cc(C#N)cc(C)c1Oc1nc(Nc2ccc(C#N)cc2)nc2c(Cl)cn(Cc3ccccc3)c12` [Cpd 56], for which the EC50 in assay [1], in assay [2], in assay [3] and in assay [4] was 10 to 100 nM each time.

Turning to `Cc1cc(C)c(Oc2nc(Nc3ccc(C#N)cc3)nc3ccn(C)c23)c(C)c1` [Cpd 57], the half-maximal effective concentration (EC50) in assay [1], in assay [2], in assay [3] and in assay [4] was under 10 nM throughout.

For `Cc1cc(Br)cc(C)c1Oc1nc(Nc2ccc(C#N)cc2)nc2ccn(Cc3ccccc3)c12` [Cpd 58], the EC50 in assay [1] is 10 to 100 nM; in assay [2] it was over 100 nM; in assay [3], 10 to 100 nM; in assay [4] it was over 100 nM.

As to `Cc1cc(C)c(Oc2nc(Nc3ccc(C#N)cc3)nc3c(Cl)cn(C)c23)c(C)c1` [Cpd 59], the EC50 in assay [1], in assay [2], in assay [3] and in assay [4] was 10 to 100 nM in each case.

As to `CC(=O)c1cc(C)c(Oc2nc(Nc3ccc(C#N)cc3)nc3ccn(Cc4ccccc4)c23)c(C)c1` [Cpd 60], the EC50 in assay [1] is under 10 nM; in assay [2] it was 10 to 100 nM; in assay [3], under 10 nM; in assay [4], 10 to 100 nM.

Take `CC(=O)c1cc(C)c(Oc2nc(Nc3ccc(C#N)cc3)nc3cc[nH]c23)c(C)c1` [Cpd 61]: the EC50 in assay [1], in assay [2], in assay [3] and in assay [4] was under 10 nM in each case.

Regarding `Cc1cc(Cl)cc(C)c1Oc1nc(Nc2ccc(C#N)cc2)nc2c(Cl)cn(C)c12` [Cpd 62], the EC50 in assay [1], in assay [2], in assay [3] and in assay [4] was under 10 nM throughout.

For `Cc1cc(Cl)cc(C)c1Oc1nc(Nc2ccc(C#N)cc2)nc2ccn(Cc3ccccc3)c12` [Cpd 63], the EC50 in assay [1] is 10 to 100 nM; in assay [2] it was over 100 nM; in assay [3], 10 to 100 nM; in assay [4] it was over 100 nM.

Regarding `Cc1cc(C)c(Oc2nc(Nc3ccc(C#N)cc3)nc3ccn(Cc4ccccc4)c23)c(C)c1` [Cpd 64], the EC50 was under 10 nM in assay [1], over 100 nM in assay [2], 10 to 100 nM in assay [3] and over 100 nM in assay [4].

For `Cc1cccc(C)c1Oc1nc(Nc2ccc(C#N)cc2)nc2cc[nH]c12` [Cpd 65], the EC50 is under 10 nM in assay [1], over 100 nM in assay [2], under 10 nM in assay [3] and under 10 nM in assay [4].

As to `Cc1cc(Cl)cc(C)c1Oc1nc(Nc2ccc(C#N)cc2)nc2cc[nH]c12` [Cpd 66], the EC50 in assay [1], in assay [2], in assay [3] and in assay [4] was under 10 nM throughout.

Take `CC(=O)c1cc(C)c(Oc2nc(Nc3ccc(C#N)cc3)nc3c(Cl)c[nH]c23)c(C)c1` [Cpd 67]: the EC50 in assay [1] is under 10 nM; in assay [2] it was under 10 nM; in assay [3] it was under 10 nM; in assay [4] it was 10 to 100 nM.

As for `Cc1cc(C#N)cc(C)c1Oc1nc(Nc2ccc(C#N)cc2)nc2ccn(C)c12` [Cpd 68], the EC50 in assay [1], in assay [2], in assay [3] and in assay [4] was under 10 nM in each case.

For the molecule `Cc1cc(C#N)cc(C)c1Oc1nc(Nc2ccc(C#N)cc2)nc2c(Cl)cn(C)c12` [Cpd 69], the EC50 in assay [1], in assay [2], in assay [3] and in assay [4] was under 10 nM each time.

For `Cc1cc(C#N)cc(C)c1Oc1nc(Nc2ccc(C#N)cc2)nc2c(Br)cn(C)c12` [Cpd 70], the EC50 in assay [1], in assay [2], in assay [3] and in assay [4] was under 10 nM throughout.

Turning to `Cc1cc(Br)cc(Cl)c1Oc1nc(Nc2ccc(C#N)cc2)nc2cc[nH]c12` [Cpd 71], the EC50 in assay [1], in assay [2], in assay [3] and in assay [4] was under 10 nM in each case.

For the origin of these results see US8227601B2, “Diaryl-purines, azapurines and -deazapurines as non-nucleoside reverse transcriptase inhibitor for treatment of HIV” (priority 2005, dated 2012).
